Entries after “also recorded” stand apart in the source; their conditions may differ.
Assays:
[1] = Solubility according to Ph. Eur. and USP; assay type: physicochemical
From the text: The solubility of form B according to Ph.

[2] = Dynamic Vapor Sorption (DVS); assay type: physicochemical; conditions: for hygroscopicity classification: according to Ph. Eur.
Procedure: Instrument: DVS Advantage
Methods: About 5 mg of the substance was added into Al pan and exposed to stepwise RH changes during two consecutive cycles according to; 20-30-40-50-60-70-80-70-60-50-40-30-20-10-0-10-20-30-40-50-60-70-80-90-80-70-60-50-40-30-20-10-0/RH using open loop mode. The experiments were performed using a gas flow rate of 200 ml/min and at 25° C. The dm/dt criteria applied was 0.001 weight-%/min during a 5 minutes window, with a maximum allowed time of 150 minutes for all steps, except for the steps at 0% RH which had no criteria but were set to 6 h.

[3] = Interconversions between the crystalline forms (stability at rt, in suspension, during drying); assay type: physicochemical; conditions: for stability during drying: drying process; for stability under conditions / suspensions with high water content: high amounts of water; for solid phase stability / transition at room temperature: rt, ambient conditions
From the text: The table below summarizes interconversions between the different forms and other issues which may be relevant to their use in pharmaceutical compositions: […]

[4] = Solubility in common crystallization solvents; conditions: common crystallization solvents including alcohols
histamine 4 receptor = histamine 4 receptor (Homo sapiens, UniProt Q9H3N8); conditions: cited from earlier work
[5] = system: inflammatory cells such as mast cells and eosinophils; conditions: cited from earlier work
[6] = Thermal stability by TGA / DSC; assay type: physicochemical
Procedure: TGA experiments were conducted using a TGA550 instrument from TA Instruments. About 1-10 mg of sample was loaded into a ceramic pan for the measurements. The sample temperature was ramped from 25 to 500° C. at 10° C./min. Nitrogen was used as the purge gas at a flow rate of 50 mL/min.
DSC analyses were carried out on a TA Instruments Q20 Differential Scanning Calorimeter. Accurately weighed samples were placed in crimped aluminum pans. Each sample was heated under nitrogen at a rate of 10° C./minute to a maximum of 300° C. Indium metal was used as the calibration standard.

Sequence of histamine 4 receptor (Q9H3N8 whole entry): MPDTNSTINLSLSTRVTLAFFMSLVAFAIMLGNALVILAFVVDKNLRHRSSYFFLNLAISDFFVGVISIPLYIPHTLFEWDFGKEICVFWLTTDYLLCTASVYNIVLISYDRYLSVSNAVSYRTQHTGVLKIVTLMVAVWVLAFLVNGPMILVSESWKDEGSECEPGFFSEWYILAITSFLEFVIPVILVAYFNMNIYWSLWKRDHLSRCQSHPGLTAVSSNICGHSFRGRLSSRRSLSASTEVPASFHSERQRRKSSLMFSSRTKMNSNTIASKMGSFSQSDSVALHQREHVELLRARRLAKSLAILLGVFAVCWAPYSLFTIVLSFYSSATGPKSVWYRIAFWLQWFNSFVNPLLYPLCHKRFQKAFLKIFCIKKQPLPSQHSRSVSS

SMILES: CNC1CN(c2nc3ncc(Br)cc3n3cnnc23)C1.O.O=S(=O)(O)O [Form B, 1-(8-bromopyrido[2,3-e][1,2,4]triazolo[4,3-a]pyrazin-4-yl)-N-methylazetidin-3-amine hydrogen sulfate monohydrate]
- solubility ([1]; 1-4-dioxane): insoluble
- solubility ([1]; 1-propanol): insoluble
- solubility ([1]; 2-propanol): insoluble
- solubility ([1]; acetone): insoluble
- solubility ([1]; chloroform): insoluble
- solubility ([1]; dimethyl sulfoxide): Soluble
- solubility ([1]; dimethylformamide): slightly soluble
- solubility ([1]; ethanol): insoluble
- solubility ([1]; ethyl acetate): insoluble
- solubility ([1]; isopropyl acetate): insoluble
- solubility ([1]; methanol): very slightly soluble
- solubility ([1]; methyl tert-butyl ether): insoluble
- solubility ([1]; n-butyl acetate): insoluble
- solubility ([1]; tert-amyl alcohol): insoluble
- solubility ([1]; tetrahydrofuran): insoluble
- solubility ([1]; water): sparingly soluble
- solubility ([1]; xylene): insoluble
- water absorbed (DVS) ([2]; 25° C., between 10 and 80% RH): By (DVS) it was demonstrated that form B absorbs 0.2%
- hygroscopicity classification ([2]; DVS): considered non-hygroscopic according to Ph. Eur. 5. (the increase in mass of a drug substance between about 0% to 80% relative humidity is less than 0.2% by weight)

SMILES: CNC1CN(c2nc3ncc(Br)cc3n3cnnc23)C1.O=S(=O)(O)O [Form F, 1-(8-bromopyrido[2,3-e][1,2,4]triazolo[4,3-a]pyrazin-4-yl)-N-methylazetidin-3-amine hydrogen sulfate]
- stability during drying ([3]; hydrogen sulfate): Converts to another form during drying process. The water can; also recorded: very easily be dried off
- stability under conditions / suspensions with high water content ([3]; hydrogen sulfate): with high water content form F converts to form I.

SMILES: CNC1CN(c2nc3ncc(Br)cc3n3cnnc23)C1 [1-(8-bromopyrido[2,3-e][1,2,4]triazolo[4,3-a]pyrazin-4-yl)-N-methylazetidin-3-amine]
- solubilities in common solvents used for crystallizations [4]: very low solubilities
- histamine 4 receptor inhibitory effect (histamine 4 receptor): strong histamine 4 receptor inhibitory effect
- effect against histamine induced infiltration of inflammatory cells [5]: suppressive effects

SMILES: CNC1CN(c2nc3ncc(Br)cc3n3cnnc23)C1.O=S(=O)(O)O [Form I, 1-(8-bromopyrido[2,3-e][1,2,4]triazolo[4,3-a]pyrazin-4-yl)-N-methylazetidin-3-amine hydrogen sulfate]
- stability during drying ([3]; hydrogen sulfate): not stable during drying at room temperature where it; also recorded: converts to form K, which then converts to form C at room; also recorded: product as it converts to form C in drying processes
- stability under conditions / suspensions with high water content [3]: the crystal structure. The dihydrate form I is the most stable

SMILES: CNC1CN(c2nc3ncc(Br)cc3n3cnnc23)C1.O=S(=O)(O)O [Form K, 1-(8-bromopyrido[2,3-e][1,2,4]triazolo[4,3-a]pyrazin-4-yl)-N-methylazetidin-3-amine hydrogen sulfate]
- stability during drying ([3]; hydrogen sulfate): Form K converts to form C in drying processes.
- solid phase stability / transition at room temperature ([3]; hydrogen sulfate): Form K converts to form C at room temperature.

SMILES: CNC1CN(c2nc3ncc(Br)cc3n3cnnc23)C1.O=S(=O)(O)O [Form C, 1-(8-bromopyrido[2,3-e][1,2,4]triazolo[4,3-a]pyrazin-4-yl)-N-methylazetidin-3-amine hydrogen sulfate]
- phase transition when humidity increased to 90% ([2]; DVS, humidity increased to 90%): observed and partial phase transition to the non-stoichiometric
- hygroscopicity classification ([2]; DVS): is just in the range for being slightly hygroscopic. DVS
- water uptake at increased relative humidity ([2]; increased relative humidity): The anhydrate significantly takes up water at increased
- stability in liquid environment containing more than 20% water ([3]; liquid environment, more than 20% water): 20% water form C will not be stable and therefore can be

SMILES: CNC1CN(c2nc3ncc(Br)cc3n3cnnc23)C1.O=S(=O)(O)O [Form M, 1-(8-bromopyrido[2,3-e][1,2,4]triazolo[4,3-a]pyrazin-4-yl)-N-methylazetidin-3-amine hydrogen sulfate]
- broad endothermic event due to water loss and breakdown of the crystal lattice [6]: 44 °C
- temperature of weight loss (TGA curve) ([6]; TGA): 50 °C
- thermal stability ([6]; hydrogen sulfate): Form M is a monohydrate but loses water and melts at very; also recorded: this low thermal stability form M is not suitable for

SMILES: CNC1CN(c2nc3ncc(Br)cc3n3cnnc23)C1.O=S(=O)(O)O [Form A, 1-(8-bromopyrido[2,3-e][1,2,4]triazolo[4,3-a]pyrazin-4-yl)-N-methylazetidin-3-amine hydrogen sulfate]
- solid phase stability / transition at room temperature ([3]; hydrogen sulfate): that undergoes solid phase transition to form B at rt over time.

SMILES: CNC1CN(c2nc3ncc(Br)cc3n3cnnc23)C1.O=S(=O)(O)O [Form D, 1-(8-bromopyrido[2,3-e][1,2,4]triazolo[4,3-a]pyrazin-4-yl)-N-methylazetidin-3-amine hydrogen sulfate]
- solid phase stability / transition at room temperature ([3]; hydrogen sulfate): solid phase transformation to form C.
- stability in suspension formulations ([3]; suspension formulations, hydrogen sulfate): converts to forms F, I, or N depending on the conditions.

SMILES: CNC1CN(c2nc3ncc(Br)cc3n3cnnc23)C1.O=S(=O)(O)O [hydrogen sulfate salt, 1-(8-bromopyrido[2,3-e][1,2,4]triazolo[4,3-a]pyrazin-4-yl)-N-methylazetidin-3-amine hydrogen sulfate]
- solubilities in common solvents used for crystallizations [4]: very low solubilities

Source: patent publication US12612405B2, “Crystalline form of 1-(8-Bromopyrido[2,3-E][1,2,4]triazolo[4,3-a]pyrazin-4-Yl)-Nmethylazetidin-3-amine hydrogen sulfate monohydrate” (JW PHARMACEUTICAL CORPORATION, priority 2021, dated 2026)
